Biological target: T1, human DHODH (Homo sapiens, UniProt Q02127)
T1 construct: Prof; M. Löffler, Marburg, Germany (gift, not a commercial vendor)
Experiment: Inhibition Assay of DHODH activity
Assay type: biochemical
Details: recombinant human DHODH; 50 mM TrisHCl, pH 8,0, 30°C; decrease in absorption at 600 nm
Protocol: 4. Inhibition Assay of DHODH activity
The standard assay mixture contained 50 µM decyclo ubichinone, 100 µM dihydroorotate, 60 µM 2,6-dichloroindophenol, as well as 20 mU DHODH. The volume activity of the recombinant enzyme used was 30 U/ml. Measurements were conducted in 50 mM TrisHCl (150 mM KCl, 0,1% Triton X-100, pH 8,0) at 30°C in a final volume of 1 ml. The components were mixed, and the reaction was started by adding dihydroorotate. The course of reaction was followed by spectrophotometrically measuring the decrease in absorption at 600 nm for 2 min. Inhibitory studies were conducted in a standard assay with additional variable amounts of inhibitor. […] These investigations were carried out with recombinant human as well as with recombinant murine DHODH provided by Prof. M. Löffler, Marburg, Germany [M. Löffler, Chem. Biol. Interact.

T1 sequence (Q02127 whole entry): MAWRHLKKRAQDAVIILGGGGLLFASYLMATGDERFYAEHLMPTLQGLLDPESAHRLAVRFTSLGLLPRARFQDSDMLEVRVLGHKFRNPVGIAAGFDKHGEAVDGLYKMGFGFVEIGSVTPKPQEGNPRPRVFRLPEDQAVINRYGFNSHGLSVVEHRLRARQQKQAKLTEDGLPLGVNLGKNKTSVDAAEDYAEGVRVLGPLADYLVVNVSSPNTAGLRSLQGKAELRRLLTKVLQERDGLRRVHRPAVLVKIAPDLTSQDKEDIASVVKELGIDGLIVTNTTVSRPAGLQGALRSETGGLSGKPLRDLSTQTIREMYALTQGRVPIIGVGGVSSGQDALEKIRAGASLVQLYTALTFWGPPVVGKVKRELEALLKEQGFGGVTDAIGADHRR

Row | Structure (SMILES) | IC50 [µM]
1 | COc1cccc(-c2ccc(NC(=O)[C@@H]3CCC[C@H]3C(=O)O)c(F)c2)c1 (relative stereo) [Example 1, trans 2-(3-Fluoro-3' methoxy-biphenyl-4-ylcarbamoyl)-cyclopentane carboxylic acid] | 5 to 20
2 | COc1cccc(-c2ccc(NC(=O)[C@H]3CCC[C@H]3C(=O)O)c(F)c2)c1 (relative stereo) [Example 2, cis 2-(3-Fluoro-3' methoxy-biphenyl-4-ylcarbamoyl)-cyclopentane carboxylic acid] | < 5
3 | O=C(O)C1CCCC1C(=O)Nc1c(F)cc(-c2ccccc2Cl)cc1F (stereo not drawn) [Example 3, 2-(2'-Chloro-3,5-difluoro-biphenyl-4-ylcarbamoyl)-cyclopentane carboxylic acid] | < 5
4 | COc1ccc(-c2cc(F)c(NC(=O)C3CCCC3C(=O)O)c(F)c2)c(OC)c1 (stereo not drawn) [Example 4, 2-(3,5-Difluoro-2',4'-dimethoxy-biphenyl-4-ylcarbamoyl)-cyclopentane carboxylic acid] | 5 to 20
5 | CCOc1cccc(-c2cc(F)c(NC(=O)C3CCCC3C(=O)O)c(F)c2)c1 (stereo not drawn) [Example 5, 2-(3'-Ethoxy-3,5-difluoro-biphenyl-4-ylcarbamoyl)-cyclopentane carboxylic acid] | < 5
6 | CCOc1ccccc1-c1cc(F)c(NC(=O)C2CCCC2C(=O)O)c(F)c1 (stereo not drawn) [Example 6, 2-(2'-Ethoxy-3,5-difluoro-biphenyl-4-ylcarbamoyl)-cyclopentane carboxylic acid] | 5 to 20
7 | O=C(O)C1CCCC1C(=O)Nc1ccc(-c2ccccc2)cc1 (stereo not drawn) [Example 7, 2-(Biphenyl-4-ylcarbamoyl)-cyclopentane carboxylic acid] | < 5
8 | O=C(O)C1CCCC1C(=O)Nc1c(F)c(F)c(-c2cccc(OC(F)(F)F)c2)c(F)c1F (stereo not drawn) [Example 8, 2-(2,3,5,6-Tetrafluoro 3'-trifluoromethoxy-biphenyl-4-ylcarbamoyl)-cyclo-pentane carboxylic acid] | < 5
9 | O=C(O)C1CCCC1C(=O)Nc1c(F)cc(-c2cccc(OC(F)(F)F)c2)cc1F (stereo not drawn) [Example 9, 2-(3,5-Difluoro-3'-trifluoromethoxy-biphenyl-4-ylcarbamoyl)-cyclopentane carboxylic acid] | < 5
